Patent publication US20260297060A1, “COMPOUNDS FOR THE DEGRADATION OF MUTANT BRAF” (C4 THERAPEUTICS, INC., priority 2023, published 2026)

Experiments:
[1] = test system: luciferase-tagged A375 human melanoma CNS tumor; experiment: Survival of mice in CNS tumor study (BRAF intracranial model) (Example 12); type: in vivo, human A375 CNS xenograft in mice; settings: versus encorafenib
Method: FIG. 48 is the survival curve for the mice after administration of vehicle, encorafenib, Compound 26, Compound 141 in CNS tumor study. The x-axis is time measured in days and the y-axis is probability of survival. The experiment was conducted as described in Example 12.
FIG. 85 is an extended survival curve for the BRAF intracranial model experiment after administration of vehicle, encorafenib, Compound 26, and Compound 141 in the CNS tumor study. The x-axis is time measured in days and the y-axis is probability of survival. The experiment was conducted as described in Example 12.

[2] = Human dose projections for Compound 26 (allometry, PBPK model), Example 15
Description: The first-in-human dose projections for Compound 26 were made using prediction models. These models utilized experimentally determined physicochemical and ADME parameters relevant to Compound 26. The in vivo plasma clearance (Cl) and volume of distribution (Vdss) values obtained across different preclinical species (mouse, rat, dog and monkey) were scaled to predict human values using allometry. […] In addition, the human efficacious AUC (area under the concentration curve) was derived from a PKPD efficacy study in a tumor bearing mouse model. […] With these inputs a pharmacokinetic model (PBPK) was developed to project first in human BID dose. The oral bioavailability data for Compound 26 from preclinical species, mouse, rat, dog and monkey was simulated in the PBPK model for that species, to build confidence in the human PBPK model.

[3] = test system: A375 cells; experiment: A375 Cell Viability Assay (CTGlo), Example 16; type: cell-based, human; settings: 72 h, 10-point dose series, in words (FIG. 83)
Method: The effect of compounds of the invention on cell viability was assessed based on the quantification of ATP using the CellTiter-Glo® 2.0 (referred to here as CTGlo) Cell Viability Assay (Catalog No. G9243, Promega, Madison, WI, USA), which signals the presence of metabolically active cells.
A375 cells were obtained from ATCC (Catalog No. CRL-1619, Manassas, VA, USA) (also referred to here as A375.1) and were maintained in DMEM, (Corning, Catalog No. 10-017-CV, Glendale, AZ, USA) supplemented with 10% fetal bovine serum (FBS; Catalog No. 16000044, Gibco, Grand Island, NY, USA) at 37° C. in an atmosphere of 5% CO2 in air. The cells were routinely sub-cultured to maintain cell density between 3×10^5-1.5×10^6 cells/mL. […] An aliquot of cell suspension was diluted 2× with a 0.4% Trypan Blue solution (Catalog No. 15250061, ThermoFisher Scientific, Waltham, MA, USA) and cell count was determined. […]
Test compounds were prepared by dissolving neat compounds in dimethyl sulfoxide (DMSO; Catalog No. D8418, Sigma-Aldrich, Inc., St. Louis, MO, USA) to generate 10 mM stock solution and stored at −20° C. […] CellTiter-Glo® reagent was then added to the cells and luminescence signals were measured after 4 hours using an EnVision™ Multimode plate reader (Perkin Elmer, Santa Clara, CA). […]

[4] = test system: A375 tumors; experiment: In vivo efficacy, A375 xenograft tumor volume (Example 8); parameters: species or system human A375 melanoma xenograft in female BALB/c nude mice; settings: oral, FIG. 22
Method: FIG. 22 is a line graph showing in vivo efficacy of encorafenib, Compound 8, Compound 26, and Compound 38 in the treatment of female BALB/c nude mice bearing A375 tumors. Mice were treated with vehicle (10 μL/g, p.o., BID), encorafenib (35 mg/kg, p.o., QD), Compound 8 (10 mg/kg, p.o., BID), Compound 26 (10 mg/kg, p.o., BID), or Compound 38 (10 mg/kg, p.o., BID) by oral gavage (p.o.). Data points represent group mean change in tumor volume. Error bars represent standard error of the mean (SEM). The x-axis is the time measured in days and the y-axis is A375 tumor volume measured in mm^3. The experiment was conducted as described in Example 8.

SMILES	survival of CNS tumor-bearing mice compared with encorafenib [1]	Human Vdss ([2]; Table 86)	Human CL (PPB corrected plasma clearance) ([2]; allometry from mouse, rat, dog and monkey)	impact on viability of A375 cells [3]	tumor regressions in the xenograft model ([4]; 10 mg/kg BID, A375 xenografts)	antitumor response compared with comparators dabrafenib or encorafenib ([4]; A375 human melanoma xenografts)
CCN(C)S(=O)(=O)Nc1ccc(F)c(Oc2ccc3ncn([C@H]4COC5(CCN(C6CC7(C6)CN(c6cc8c(cc6F)c(N6CCC(=O)NC6=O)nn8C)C7)CC5)C4)c(=O)c3c2)c1C#N [Compound 26, (3R)-3-[6-[2-cyano-3-[[ethyl(methyl)sulfamoyl]amino]-6-fluoro-phenoxy]-4-oxo-quinazolin-3-yl]-8-[2-[3-(2,4-dioxohexahydropyrimidin-1-yl)-5-fluoro-1-methyl-indazol-6-yl]-2-azaspiro[3.3]heptan-6-yl]-1-oxa-8-azaspiro[4.5]decane]	lived significantly longer	0.50 L/kg	0.88 mL/min/kg	significant impact on the viability of A375 cells	–	–
CCN(C)S(=O)(=O)Nc1ccc(F)c(Oc2ccc3ncn(C4CC5(CCN(C6CC7(C6)CN(c6cc8c(cc6F)c(N6CCC(=O)NC6=O)nn8C)C7)CC5)C4)c(=O)c3c2)c1C#N (centres unmarked) [Compound 141, 6-[2-cyano-3-[[ethyl(methyl)sulfamoyl]amino]-6-fluoro-phenoxy]-3-[7-[2-[3-(2,4-dioxohexahydropyrimidin-1-yl)-5-fluoro-1-methyl-indazol-6-yl]-2-azaspiro[3.3]heptan-6-yl]-7-azaspiro[3.5]nonan-2-yl]-4-oxo-quinazoline]	lived significantly longer	–	–	significant impact on the viability of A375 cells	–	–
CCN(C)S(=O)(=O)Nc1ccc(F)c(Oc2ccc3ncn(C4CC5(CCN(C6CCC(c7cc8c(cc7F)c(N7CCC(=O)NC7=O)nn8C)CC6)CC5)C4)c(=O)c3c2)c1C#N (single isomer, unassigned) [Compound 8, 6-[2-cyano-3-[[ethyl(methyl)sulfamoyl]amino]-6-fluoro-phenoxy]-3-[7-[4-[3-(2,4-dioxohexahydropyrimidin-1-yl)-5-fluoro-1-methyl-indazol-6-yl]cyclohexyl]-7-azaspiro[3.5]nonan-2-yl]-4-oxo-quinazoline]	–	–	–	–	profound tumor regressions	more robust antitumor response
